Measured values from patent US11707437B2, “Topical formulations with resiniferatoxin nanoparticles and methods” (priority 2019, dated 2023).

Legend:
[1] = test system: TRPV1 positive peripheral terminals; conditions: local intra-dermal administration, rodents; cited from earlier work
[2] = target: TRPV1 receptor (Homo sapiens, UniProt Q8NER1); conditions: cited from earlier work
[3] = target: TRPV1 ion channel (UniProt O35433); assay: patch clamp current recordings from HEK cells stably expressing TRPV1; assay type: cell-based; conditions: for reversibility of current response by washout: FIG. 3
Method: Y axis is current amplitude and X-axis is time indicated by a 2 min bar.

[4] = test system: TRPV1 expressing nerve terminals; conditions: intrathecal administration, STZ-induced diabetes; cited from earlier work
[5] = intraperitoneally in rats, over a period of 9 months; cited from earlier work

Sequence of TRPV1 receptor (Q8NER1 whole entry): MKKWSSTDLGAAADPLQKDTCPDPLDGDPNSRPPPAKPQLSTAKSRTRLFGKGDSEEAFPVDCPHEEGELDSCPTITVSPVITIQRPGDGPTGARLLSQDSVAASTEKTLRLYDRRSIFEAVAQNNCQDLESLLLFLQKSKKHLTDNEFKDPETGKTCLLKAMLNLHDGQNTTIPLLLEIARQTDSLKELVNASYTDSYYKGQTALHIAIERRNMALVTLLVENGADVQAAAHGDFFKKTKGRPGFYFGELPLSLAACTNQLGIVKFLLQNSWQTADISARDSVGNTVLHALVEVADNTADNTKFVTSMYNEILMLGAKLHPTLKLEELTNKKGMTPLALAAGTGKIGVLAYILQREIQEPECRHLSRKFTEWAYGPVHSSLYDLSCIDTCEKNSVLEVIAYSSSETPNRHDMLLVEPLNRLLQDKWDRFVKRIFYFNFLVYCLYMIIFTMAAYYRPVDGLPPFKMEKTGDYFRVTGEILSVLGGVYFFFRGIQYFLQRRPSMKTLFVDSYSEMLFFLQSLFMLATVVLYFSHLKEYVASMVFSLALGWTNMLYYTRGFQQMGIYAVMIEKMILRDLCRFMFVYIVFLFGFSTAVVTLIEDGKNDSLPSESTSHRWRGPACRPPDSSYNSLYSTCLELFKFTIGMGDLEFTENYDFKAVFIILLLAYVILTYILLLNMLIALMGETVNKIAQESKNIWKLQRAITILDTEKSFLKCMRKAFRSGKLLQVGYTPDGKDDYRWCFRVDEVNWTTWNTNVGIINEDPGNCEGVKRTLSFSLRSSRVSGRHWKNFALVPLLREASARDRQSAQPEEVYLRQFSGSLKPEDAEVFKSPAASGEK

SMILES | pain sensitivity [1] | concentrations that fully activate TRPV1 receptor [2] | current activation ([3]; 7.9 fM to 15.8 pM, after 100 nM capsaicin, rate of activation concentration dependent) | reversibility of current response by washout ([3]; RTX 7.9 fM) | concentrations activating TRPV1 ion channels relative to capsaicin ([3]; RTX at fM to pM concentrations, FIG. 2) | effect on thermal hyperalgesia [4] | dose administered without observable side effects [5] [mg/kg] | reversibility of current response by washout ([3]; capsaicin 100 nM)
C=C(C)[C@]12C[C@@H](C)[C@@]34O[C@](Cc5ccccc5)(O[C@@H]1[C@@H]3C=C(COC(=O)Cc1ccc(O)c(OC)c1)C[C@]1(O)C(=O)C(C)=C[C@@H]41)O2 [RTX, Resiniferatoxin] | complete loss of pain sensitivity | femtomolar-picomolar range | activated currents maximally | could not be reversed by washout | five to nine orders of magnitude lower than capsaicin | reversed thermal hyperalgesia | ≤ 0.2 | 
COc1cc(CNC(=O)CCCC/C=C/C(C)C)ccc1O [capsaicin] |  |  |  |  |  |  |  | could be reversed by washout
